Laboratory results published in US20250346592A1 (Celgene Corporation, priority 2022, published 2025).

Molecular target: hPAD4 enzyme (Homo sapiens (Human), UniProt Q9UM07)
Experiment: RFMS2 assay (RapidFire mass spectrometry, TSTGGRQGSHH peptide substrate)
Assay type: biochemical
Conditions: 35 nM recombinant human PAD4, 500 μM TSTGGRQGSHH peptide, 30 minutes at room temperature; read-out: RFMS 2 IC50
Outline: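 IC50 derived from RapidFire LC-MS/MS (positive ESI MRM) of substrate versus product after a 30 min room-temperature reaction stopped with 10% formic acid. Reaction contained 35 nM human PAD4, 500 μM peptide, 2 mM CaCl2, 5 mM DTT at pH 7.4, and compounds diluted 3-fold from 20 μM.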

Sequence of hPAD4 enzyme (Q9UM07 whole entry): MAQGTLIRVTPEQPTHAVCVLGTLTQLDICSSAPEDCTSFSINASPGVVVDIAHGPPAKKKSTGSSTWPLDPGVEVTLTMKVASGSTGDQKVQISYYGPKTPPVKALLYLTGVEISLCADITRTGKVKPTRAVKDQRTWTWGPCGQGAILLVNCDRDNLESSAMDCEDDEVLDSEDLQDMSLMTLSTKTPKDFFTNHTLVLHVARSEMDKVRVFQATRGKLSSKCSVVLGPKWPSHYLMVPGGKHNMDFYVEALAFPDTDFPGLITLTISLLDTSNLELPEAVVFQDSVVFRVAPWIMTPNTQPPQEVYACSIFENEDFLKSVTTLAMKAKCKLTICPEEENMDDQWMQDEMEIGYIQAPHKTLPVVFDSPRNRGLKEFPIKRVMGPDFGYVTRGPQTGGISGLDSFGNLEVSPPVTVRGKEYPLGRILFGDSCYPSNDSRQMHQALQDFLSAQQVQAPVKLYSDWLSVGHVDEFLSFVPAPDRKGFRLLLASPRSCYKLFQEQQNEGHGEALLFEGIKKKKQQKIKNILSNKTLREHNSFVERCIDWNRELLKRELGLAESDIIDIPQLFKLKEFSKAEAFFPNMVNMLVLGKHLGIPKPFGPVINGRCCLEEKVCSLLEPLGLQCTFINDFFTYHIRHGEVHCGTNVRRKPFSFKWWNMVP

Row | SMILES | IC50
1 | CCn1c(-c2nc3cc4c(cc3n2C)CCN(C[C@H](N)CF)C4=O)cc2ccccc21 [Example 134, (S)-6-(2-amino-3-fluoropropyl)-2-(1-ethyl-1H-indol-2-yl)-1-methyl-1,6,7,8-tetrahydro-5H-imidazo[4,5-g]isoquinolin-5-one] | > 1000 nM
2 | COC1(Cn2c(-c3nc4cc5c(cc4n3C)CCN(C[C@H](N)CF)C5=O)cc3ccccc32)CC1 [Example 147, (S)-6-(2-amino-3-fluoropropyl)-2-(1-((1-methoxycyclopropyl)methyl)-1H-indol-2-yl)-1-methyl-1,6,7,8-tetrahydro-5H-imidazo[4,5-g]isoquinolin-5-one] | > 1000 nM
3 | Cn1c(-c2cc3cccc(C#N)c3n2Cc2ccno2)nc2cc3c(cc21)CCN(C[C@H](N)CF)C3=O [Example 148, (S)-2-(6-(2-amino-3-fluoropropyl)-1-methyl-5-oxo-5,6,7,8-tetrahydro-1H-imidazo[4,5-g]isoquinolin-2-yl)-1-(isoxazol-5-ylmethyl)-1H-indole-7-carbonitrile] | 501 to 1000 nM
4 | Cn1c(-c2cc3cccc(OCC4COC4)c3n2CC2CC2)nc2cc3c(cc21)CCN(C[C@H](N)CF)C3=O [Example 149, (S)-6-(2-amino-3-fluoropropyl)-2-(1-(cyclopropylmethyl)-7-(oxetan-3-ylmethoxy)-1H-indol-2-yl)-1-methyl-1,6,7,8-tetrahydro-5H-imidazo[4,5-g]isoquinolin-5-one] | 101 to 500 nM
5 | Cn1c(-c2cc3cccc(OCC4CNC4)c3n2CC2CC2)nc2cc3c(cc21)CCN(C[C@H](N)CF)C3=O [Example 152, (S)-6-(2-amino-3-fluoropropyl)-2-(7-(azetidin-3-ylmethoxy)-1-(cyclopropylmethyl)-1H-indol-2-yl)-1-methyl-1,6,7,8-tetrahydro-5H-imidazo[4,5-g]isoquinolin-5-one] | 101 to 500 nM
6 | COCCOc1cccc2cc(-c3nc4cc5c(cc4n3C)CCN(C[C@H](N)CF)C5=O)n(CC3CC3)c12 [Example 153, (S)-6-(2-amino-3-fluoropropyl)-2-(1-(cyclopropyl-methyl)-7-(2-methoxyethoxy)-1H-indol-2-yl)-1-methyl-1,6,7,8-tetrahydro-5H-imidazo[4,5-g] isoquinolin-5-one] | 101 to 500 nM
7 | CN(C)CCOc1cccc2cc(-c3nc4cc5c(cc4n3C)CCN(C[C@H](N)CF)C5=O)n(CC3CC3)c12 [Example 154, (S)-6-(2-amino-3-fluoropropyl)-2-(1-(cyclopropyl-methyl)-7-(2-(dimethylamino)ethoxy)-1H-indol-2-yl)-1-methyl-1,6,7,8-tetrahydro-5H-imidazo[4,5-g] isoquinolin-5-one] | > 1000 nM
8 | Cn1c(-c2cc3cccc(OC[C@@H]4CCC(=O)N4)c3n2CC2CC2)nc2cc3c(cc21)CCN(C[C@H](N)CF)C3=O [Example 156, 6-((S)-2-amino-3-fluoropropyl)-2-(1-(cyclopropyl-methyl)-7-(((S)-5-oxopyrrolidin-2-yl)methoxy)-1H-indol-2-yl)-1-methyl-1,6,7,8-tetrahydro-5H-imidazo [4,5-g]isoquinolin-5-one] | 101 to 500 nM
9 | Cn1c(-c2cc3cccc(OC[C@H]4CCC(=O)N4)c3n2CC2CC2)nc2cc3c(cc21)CCN(C[C@H](N)CF)C3=O [Example 157, 6-((S)-2-amino-3-fluoropropyl)-2-(1-(cyclopropyl-methyl)-7-(((R)-5-oxopyrrolidin-2-yl)methoxy)-1H-indol-2-yl)-1-methyl-1,6,7,8-tetrahydro-5H-imidazo [4,5-g]isoquinolin-5-one] | 101 to 500 nM
10 | Cn1c(-c2cc3cccc(OCCN4CCOCC4)c3n2CC2CC2)nc2cc3c(cc21)CCN(C[C@H](N)CF)C3=O [Example 158, (S)-6-(2-amino-3-fluoropropyl)-2-(1-(cyclopropyl-methyl)-7-(2-morpholinoethoxy)-1H-indol-2-yl)-1-methyl-1,6,7,8-tetrahydro-5H-imidazo[4,5-g] isoquinolin-5-one] | 501 to 1000 nM
11 | Cn1c(-c2cc3cccc(OC[C@@H]4CNCCO4)c3n2CC2CC2)nc2cc3c(cc21)CCN(C[C@H](N)CF)C3=O [Example 159, 6-((S)-2-amino-3-fluoropropyl)-2-(1-(cyclopropyl-methyl)-7-(((S)-morpholin-2-yl)methoxy)-1H-indol-2-yl)-1-methyl-1,6,7,8-tetrahydro-5H-imidazo[4,5-g] isoquinolin-5-one] | 501 to 1000 nM
12 | Cn1c(-c2cc3cccc(OC[C@H]4CNCCO4)c3n2CC2CC2)nc2cc3c(cc21)CCN(C[C@H](N)CF)C3=O [Example 160, 6-((S)-2-amino-3-fluoropropyl)-2-(1-(cyclopropylmethyl)-7-(((R)-morpholin-2-yl)methoxy)-1H-indol-2-yl)-1-methyl-1,6,7,8-tetrahydro-5H-imidazo[4,5-g]isoquinolin-5-one] | 501 to 1000 nM
13 | Cn1c(-c2cc3cccc(OCC4CCOCC4)c3n2CC2CC2)nc2cc3c(cc21)CCN(C[C@H](N)CF)C3=O [Example 161, (S)-6-(2-amino-3-fluoropropyl)-2-(1-(cyclopropylmethyl)-7-((tetrahydro-2H-pyran-4-yl)methoxy)-1H-indol-2-yl)-1-methyl-1,6,7,8-tetrahydro-5H-imidazo[4,5-g]isoquinolin-5-one] | 501 to 1000 nM

Next, values leading:

Row | IC50 | SMILES
14 | 101 to 500 nM | COc1cccc2cc(-c3nc4cc5c(cc4n3C)CCN(C[C@H](N)CF)C5=O)n(C[C@@H]3CCCO3)c12 [Example 133, 6-((S)-2-amino-3-fluoropropyl)-2-(7-methoxy-1-(((S)-tetrahydrofuran-2-yl)methyl)-1H-indol-2-yl)-1-methyl-1,6,7,8-tetrahydro-5H-imidazo[4,5-g]isoquinolin-5-one]
15 | 101 to 500 nM | COc1cccc2cc(-c3nc4cc5c(cc4n3C)CCN(C[C@H](N)CF)C5=O)n(Cc3cc(Cl)no3)c12 [Example 136, (S)-6-(2-amino-3-fluoropropyl)-2-(1-((3-chloroisoxazol-5-yl)methyl)-7-methoxy-1H-indol-2-yl)-1-methyl-1,6,7,8-tetrahydro-5H-imidazo[4,5-g]isoquinolin-5-one]
16 | 101 to 500 nM | COc1cccc2cc(-c3nc4cc5c(cc4n3C)CCN(C[C@H](N)CF)C5=O)n(Cc3cc(C#N)no3)c12 [Example 137, (S)-5-((2-(6-(2-amino-3-fluoropropyl)-1-methyl-5-oxo-5,6,7,8-tetrahydro-1H-imidazo[4,5-g]isoquinolin-2-yl)-7-methoxy-1H-indol-1-yl)methyl)isoxazole-3-carbonitrile]
17 | 101 to 500 nM | COc1cccc2cc(-c3nc4cc5c(cc4n3C)CCN(C[C@H](N)CF)C5=O)n(Cc3ccoc3)c12 [Example 138, (S)-6-(2-amino-3-fluoropropyl)-2-(1-(furan-3-ylmethyl)-7-methoxy-1H-indol-2-yl)-1-methyl-1,6,7,8-tetrahydro-5H-imidazo[4,5-g]isoquinolin-5-one]
18 | 101 to 500 nM | COc1cccc2cc(-c3nc4cc5c(cc4n3C)CCN(C[C@H](N)CF)C5=O)n(Cc3oncc3C)c12 [Example 139, (S)-6-(2-amino-3-fluoropropyl)-2-(7-methoxy-1-((4-methylisoxazol-5-yl)methyl)-1H-indol-2-yl)-1-methyl-1,6,7,8-tetrahydro-5H-imidazo[4,5-g]isoquinolin-5-one]
19 | 11 to 100 nM | COc1cccc2cc(-c3nc4cc5c(cc4n3C)CCN(C[C@H](N)CF)C5=O)n(Cc3ccc(C#N)o3)c12 [Example 140, (S)-5-((2-(6-(2-amino-3-fluoropropyl)-1-methyl-5-oxo-5,6,7,8-tetrahydro-1H-imidazo[4,5-g]isoquinolin-2-yl)-7-methoxy-1H-indol-1-yl)methyl)furan-2-carbonitrile]
20 | 101 to 500 nM | COc1cccc2cc(-c3nc4cc5c(cc4n3C)CCN(C[C@H](N)CF)C5=O)n(Cc3ccco3)c12 [Example 141, (S)-6-(2-amino-3-fluoropropyl)-2-(1-(furan-2-ylmethyl)-7-methoxy-1H-indol-2-yl)-1-methyl-1,6,7,8-tetrahydro-5H-imidazo[4,5-g]isoquinolin-5-one]
21 | 101 to 500 nM | COc1cccc2cc(-c3nc4cc5c(cc4n3C)CCN(C[C@H](N)CF)C5=O)n(Cc3ocnc3C)c12 [Example 142, (S)-6-(2-amino-3-fluoropropyl)-2-(7-methoxy-1-((4-methyloxazol-5-yl)methyl)-1H-indol-2-yl)-1-methyl-1,6,7,8-tetrahydro-5H-imidazo[4,5-g]isoquinolin-5-one]
22 | 101 to 500 nM | COc1cccc2cc(-c3nc4cc5c(cc4n3C)CCN(C[C@H](N)CF)C5=O)n(Cc3ccc(C)o3)c12 [Example 143, (S)-6-(2-amino-3-fluoropropyl)-2-(7-methoxy-1-((5-methylfuran-2-yl)methyl)-1H-indol-2-yl)-1-methyl-1,6,7,8-tetrahydro-5H-imidazo[4,5-g]isoquinolin-5-one]
23 | 101 to 500 nM | COc1cccc2cc(-c3nc4cc5c(cc4n3C)CCN(C[C@H](N)CF)C5=O)n(Cc3ccnnc3)c12 [Example 144, (S)-6-(2-amino-3-fluoropropyl)-2-(7-methoxy-1-(pyridazin-4-ylmethyl)-1H-indol-2-yl)-1-methyl-1,6,7,8-tetrahydro-5H-imidazo[4,5-g]isoquinolin-5-one]
24 | 101 to 500 nM | COc1cccc2cc(-c3nc4cc5c(cc4n3C)CCN(C[C@H](N)CF)C5=O)n(Cc3coc(C)n3)c12 [Example 145, (S)-6-(2-amino-3-fluoropropyl)-2-(7-methoxy-1-((2-methyloxazol-4-yl)methyl)-1H-indol-2-yl)-1-methyl-1,6,7,8-tetrahydro-5H-imidazo[4,5-g]isoquinolin-5-one]
25 | 11 to 100 nM | Cn1c(-c2cc3cccc(OCC4CNC(=O)C4)c3n2CC2CC2)nc2cc3c(cc21)CCN(C[C@H](N)CF)C3=O (some centres unmarked) [Example 151]
26 | 11 to 100 nM | Cn1c(-c2cc3cccc(OCCn4cccn4)c3n2CC2CC2)nc2cc3c(cc21)CCN(C[C@H](N)CF)C3=O [Example 155, (S)-2-(7-(2-(1H-pyrazol-1-yl)ethoxy)-1-(cyclopropyl-methyl)-1H-indol-2-yl)-6-(2-amino-3-fluoropropyl)-1-methyl-1,6,7,8-tetrahydro-5H-imidazo[4,5-g] isoquinolin-5-one]
